Among the data in PMC7377239, “Cardiovascular Effects of Polychlorinated Biphenyls and Their Major Metabolites” (Environmental Health Perspectives, 2020) are minimal effective concentration values, retold here.

Read-outs that look alike come from different tables or passages of the source.

In one experiment the test system is HUVECs. As to the kind of experiment: Tube formation (tubulogenesis) assay in HUVECs, 18 h. To be noted: Homo sapiens, HUVEC, 18 h, HUVEC. In kind it is cell-based, human. In outline:
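HUVECs (passage 1–5) seeded on reduced-growth-factor basement membrane and exposed to compounds overnight at 37°C, 5% CO2, in 2× maintenance medium with 12.5 ng/mL VEGF; 0.5% DMSO vehicle. Calcein AM-stained tube networks imaged and analysed; vehicle-normalized readouts fit to four-parameter logistic, POD set at one SD of vehicle means.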

In experiment [1] the test system is iCell endothelial cells (human iPSC-derived ECs). As to the kind of experiment: Tube formation (tubulogenesis) assay in iCell endothelial cells, 18 h. Type of experiment: cell-based. To be noted: Homo sapiens, Endothelial cell, endothelial cells (endo), 18 hr. The procedure, abridged:
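iCell ECs (passages 1–5) seeded 7,500 cells/well on reduced-growth-factor Geltrex in starvation medium, exposed overnight at 37°C to compounds in triplicate concentration–response (0.5% DMSO vehicle). Calcein AM staining, 4× imaging, angiogenesis image analysis; readouts normalized to vehicle, four-parameter logistic fit, POD at 1 SD of vehicle; 100 μM assigned NOAEL if no response.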

On to `Oc1ccccc1-c1ccc(Cl)cc1` [2'-OH-PCB 3], for which the minimal effective concentration with HUVECs (tube formation mtl, read-out: POD huvec.mtl.18hr) worked out at 100 µM; in the experiment on HUVECs (tube formation tlps, read-out: POD huvec.tlps.18hr), 0.57 µM; with HUVECs (tube formation tta, read-out: POD huvec.tta.18hr) it was 100 µM; with HUVECs (tube formation ttl, read-out: POD huvec.ttl.18hr), 100 µM; in experiment [1] (tube formation mtl, read-out: POD endo.mtl.18hr), 13.4 µM; in experiment [1] (tube formation tlps, read-out: POD endo.tlps.18hr), 9.27 µM. In addition, the minimal effective concentration in experiment [1] (tube formation tta, read-out: POD endo.tta.18hr) is 29.9 µM; in experiment [1] (tube formation ttl, read-out: POD endo.ttl.18hr), 23.1 µM.
